From patent publication US20100076015A1, “Aminopyridine Derivatives” (VANTIA LIMITED, priority 2008, published 2010)

Tests used:
Format in all cases: biochemical
plasma kallikrein = plasma kallikrein (Homo sapiens, UniProt P03952); experiment: Enzyme selectivity: plasma kallikrein (chromogenic substrate S-2302); details: chromogenic substrate S-2302, 37° C.
Method: (§1) Determination of Enzyme Selectivity
(§2) Selected compounds were further screened for inhibitory activity against other trypsin-like serine proteases using the appropriate enzyme and chromogenic substrate (Chromogenix AB). The activity against the following human enzymes was tested (substrate in brackets):—plasma kallikrein (S-2302), thrombin (S-2238), plasmin (S-2390) and trypsin (S-2222). The enzyme was incubated at 37° C. with the chromogenic substrate. Residual enzyme activity (initial rate of reaction) was determined by measuring the change in optical absorbance at 405 nm.

trypsin = experiment: Enzyme selectivity: trypsin (chromogenic substrate S-2222); details: human enzyme, chromogenic substrate S-2222, 37° C.
Method: as §1, §2

plasmin = plasmin (Homo sapiens, UniProt P00747); experiment: Enzyme selectivity: plasmin (chromogenic substrate S-2390); details: chromogenic substrate S-2390, 37° C.
plasmin, sequence (P00747 581-810 limits assumed): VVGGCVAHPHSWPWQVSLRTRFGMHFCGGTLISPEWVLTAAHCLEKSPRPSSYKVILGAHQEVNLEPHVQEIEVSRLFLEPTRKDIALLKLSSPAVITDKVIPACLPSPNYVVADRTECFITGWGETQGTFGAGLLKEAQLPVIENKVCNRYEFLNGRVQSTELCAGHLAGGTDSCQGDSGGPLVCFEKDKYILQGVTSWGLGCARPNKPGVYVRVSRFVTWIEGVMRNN
plasmin, sequence (P00747 97-580 partner limits assumed): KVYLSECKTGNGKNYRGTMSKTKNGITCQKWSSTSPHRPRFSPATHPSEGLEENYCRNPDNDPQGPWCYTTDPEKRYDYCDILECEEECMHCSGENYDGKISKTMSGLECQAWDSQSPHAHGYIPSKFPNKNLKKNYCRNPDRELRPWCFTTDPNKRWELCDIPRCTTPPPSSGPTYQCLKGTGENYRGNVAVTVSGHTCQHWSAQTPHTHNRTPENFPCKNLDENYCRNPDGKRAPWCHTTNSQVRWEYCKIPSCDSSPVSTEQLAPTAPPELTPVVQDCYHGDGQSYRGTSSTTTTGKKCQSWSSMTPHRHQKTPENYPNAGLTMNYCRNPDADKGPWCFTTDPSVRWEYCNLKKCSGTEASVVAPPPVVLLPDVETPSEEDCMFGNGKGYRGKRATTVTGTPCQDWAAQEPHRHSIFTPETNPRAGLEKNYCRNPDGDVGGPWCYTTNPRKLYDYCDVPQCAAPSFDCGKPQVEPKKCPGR
Method: as §1, §2

thrombin = thrombin (Homo sapiens, UniProt P00734); experiment: Enzyme selectivity: thrombin (chromogenic substrate S-2238); details: chromogenic substrate S-2238, 37° C.
Method: as §1, §2

Human KLK1 = biological target: T1, Human KLK1 (Homo sapiens, UniProt P06870); experiment: Determination of the IC50 for KLK1 (fluorogenic substrate H-DVal-Leu-Arg-AFC); details: 37° C.
T1 construct: purchased Callbiochem (Calbiochem)
T1 sequence (P06870 25-262): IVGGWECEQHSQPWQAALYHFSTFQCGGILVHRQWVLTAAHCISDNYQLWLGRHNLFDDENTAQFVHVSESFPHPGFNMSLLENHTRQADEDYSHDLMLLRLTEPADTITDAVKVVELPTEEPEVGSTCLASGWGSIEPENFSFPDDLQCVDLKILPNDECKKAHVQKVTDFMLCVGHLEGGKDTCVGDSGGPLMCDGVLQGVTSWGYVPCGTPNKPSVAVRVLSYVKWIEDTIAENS
In short: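 Test compound at various concentrations was incubated with human KLK1 and the fluorogenic substrate H-DVal-Leu-Arg-AFC at 37° C. Absorbance change at 410 nm gave the initial reaction rate, from which IC50 was obtained.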

plasma kallikrein, sequence (P03952 20-638): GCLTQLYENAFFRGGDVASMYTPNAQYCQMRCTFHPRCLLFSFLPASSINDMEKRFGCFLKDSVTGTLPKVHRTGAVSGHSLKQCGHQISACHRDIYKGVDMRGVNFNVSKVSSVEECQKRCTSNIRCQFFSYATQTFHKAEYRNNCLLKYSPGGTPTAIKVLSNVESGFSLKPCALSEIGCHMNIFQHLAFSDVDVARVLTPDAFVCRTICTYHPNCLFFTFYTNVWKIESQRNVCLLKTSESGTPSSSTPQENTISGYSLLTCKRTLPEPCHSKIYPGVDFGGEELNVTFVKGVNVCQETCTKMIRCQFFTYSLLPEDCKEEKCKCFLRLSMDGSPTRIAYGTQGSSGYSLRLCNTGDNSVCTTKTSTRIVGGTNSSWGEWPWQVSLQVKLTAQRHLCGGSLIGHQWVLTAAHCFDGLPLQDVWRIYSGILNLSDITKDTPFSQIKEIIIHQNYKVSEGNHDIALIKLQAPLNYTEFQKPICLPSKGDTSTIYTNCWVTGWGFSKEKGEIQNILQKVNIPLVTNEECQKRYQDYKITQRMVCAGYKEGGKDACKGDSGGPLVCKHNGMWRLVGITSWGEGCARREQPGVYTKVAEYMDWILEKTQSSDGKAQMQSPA

Row | IC50 (plasma kallikrein) [µM] | IC50 (trypsin) [µM] | IC50 (plasmin) [µM] | IC50 (thrombin) [µM] | IC50 (Human KLK1) [µM] | SMILES
1 | > 10 | > 10 | > 10 | > 10 | 0.00082 | CCC(C)[C@H](C(=O)N[C@@H](Cc1ccc(Cl)c(Cl)c1)C(=O)NCc1ccc(N)nc1)N(C)C (stereo partly drawn) [Example 398, (R)-2-Dimethylamino-3-methyl-pentanoic acid [(S)-1-[(6-amino-pyridin-3-ylmethyl)-carbamoyl]-2-(3,4-dichloro-phenyl)-ethyl]-amide]
2 | > 10 | > 10 | > 10 | > 10 | 0.0017 | CN(C)[C@H](Cc1ccccc1)C(=O)N[C@@H](Cc1ccc(Cl)c(Cl)c1)C(=O)NCc1ccc(N)nc1 [Example 400, (R)—N-[(S)-1-[(6-Amino-pyridin-3-ylmethyl)-carbamoyl]-2-(3,4-dichloro-phenyl)-ethyl]-2-dimethylamino-3-phenyl-propionamide]
3 | > 10 | > 10 | > 10 | > 10 | 0.0042 | CC(C)N(C)[C@@H](C)C(=O)N(C)[C@@H](CC1CCCCC1)C(=O)NCc1ccc(N)nc1 [Example 437, (S)—N-{(S)-1-[(6-Amino-pyridin-3-ylmethyl)-carbamoyl]-2-cyclohexyl-ethyl}-2-(isopropyl-methyl-amino)-N-methyl-propionamide]
